Assays:
[1] = system: neonatal rat cardiomyocytes; test: Morphometric analysis of cardiomyocytes (anti-sarcomeric α-actinin staining); format: cell-based; design: Area / Major axis / Minor axis / Major/Minor: dose or concentration left out as unconfirmed; details: for Area / Major axis / Major/Minor / Minor axis: virus moi 100, PE or LIF (1000 units/ml) where indicated, mean ± SD
ERK5 [2] = details: Kamakura et al., 1999; cited from earlier work
ERK5 [3] = test: ERK5 immunoprecipitation kinase assay (GST-MEF2C substrate) after treatment of cardiomyocytes; format: cell-based; details: at 60 min; 0.3M sorbitol or 200 μM H2O2; serum-deprived neonatal rat cardiomyocytes
Method: Top, ERK5 was immunoprecipitated from 200 μg of cellular lysate with an antibody specific for the carboxyl-terminal 20 amino acids. Kinase assays were performed with immunoprecipitated ERK5 using GST-MEF2C substrate in the presence of [γ-^32P]-ATP. GST-MEF2C phosphorylation was detected by autoradiography after SDS-PAGE. Middle, immunoblotting was performed on immunoprecipitated material using rabbit anti-ERK5 antibody. Bottom, levels of ^32P-phosphorylated GST-MEF2C were quantitated with a Phosphor Imager.
Following incubation for 30 min at 30° C., samples were separated by SDS-PAGE and transferred to a polyvinylidene difluoride (PVDF) membrane. The level of ^32P-labeled GST-fusion protein on the membrane was analyzed using a Phosphor Imager (Molecular Dynamics). The membrane was then immunoblotted with anti-ERK5 rabbit polyclonal antibody (StressGen) at a final concentration of 150 ng/ml and proteins were visualized using a chemiluminescence system (Santa Cruz).
Eighteen hours after plating, cells were changed into serum-free media and either incubated for an additional forty-eight hours prior to treatment with hypertrophic agents or infected with adenovirus at a multiplicity of infection of 100.
Following treatment, cardiomyocytes were harvested and ERK5 immunoprecipitation (IP) kinase assays were performed with a GST-MEF2C substrate.

skeletal α-actin = test: RNA dot blot, fetal gene expression in cardiomyocytes: skeletal α-actin; format: cell-based; details: Rattus norvegicus, Cardiomyocyte; Adβ-gal-infected cells treated with LIF (1000 units/ml) or PE (50 μM) 24 hours; relative to uninfected untreated cells
Method: FIGS. 4A-B. MEK5 signaling contributes to the regulation of cardiomyocyte fetal gene expression by PE and LIF. (FIG. 4A) Cardiomyocytes were either not infected (−) or infected with MEK5WT, MEK5KM or β-gal adenoviruses at an moi of 20 and serum-deprived. Thirty-six hours post-infection, cells were either not treated or treated with 50 μM PE (black bar) or 1000 units/ml LIF (white bar) for an additional 24 hours. RNA was prepared and used for dot blots with oligonucleotide probes specific for skeletal α-actin, ANF or BNP. Signal intensity was quantitated using a Phosphor Imager. The average fold induction±SD of three independent experiments is shown. “-fold” induction is relative to uninfected cells without PE or LIF treatment. (FIG. 4B) Cardiomyocytes were either not infected or infected with MEK5DD or β-gal adenoviruses at an moi of 20 and serum-deprived. Forty-eight hours post-infection, the cells were harvested and RNA was prepared. Transcript levels for α-skeletal actin, ANF or BNP were determined as described in FIG. 4A. […]
To determine whether elevated MEK5 could also transduce signals that regulate fetal gene expression, the inventors treated cardiomyocytes infected with AdMEK5WT, AdMEK5KM or Ad[…]-gal with LIF or PE and analyzed expression of atrial natriuretic factor (ANF), brain natriuretic peptide (BNP) and skeletal α-actin (FIG. 4A). […]

In the case of “LIF: IL-6 family cytokine, leukemia inhibitory factor”, the Area [1] is reported as 3586 ± 1090 μm^2, the Major axis [1] is reported as 144 ± 36 μm and the Major/Minor [1] is reported as 5.06. For the same compound, the Minor axis [1] was 33 ± 12 μm and the “cardiomyocyte elongation (morphology)” value ([1]; α-actinin staining) was “induced dramatic elongation”.
In the case of `N#CC(=C(/N)Sc1ccccc1N)/C(C#N)=C(\N)Sc1ccccc1N` [U0126], the “inhibition of activation of ERK5” value (ERK5 [2]) is listed as “inhibit activation of ERK5”.
In the case of `OO` [H2O2], the “activation of ERK5 (phosphorylation of GST-MEF2C)” value (ERK5 [3]) is reported as 5 fold.
For `OC[C@@H](O)[C@@H](O)[C@H](O)[C@@H](O)CO` [sorbitol], the “activation of ERK5 (phosphorylation of GST-MEF2C)” value (ERK5 [3]) was 8 fold.
For `COc1cccc(-c2cc(=O)c3ccccc3o2)c1N` [PD098059], the “inhibition of activation of ERK5” value (ERK5 [2]) is given as “inhibit activation of ERK5”.
Work on `CNC[C@H](O)c1cccc(O)c1` [PE, phenylephrine] yielded an Area [1] of 5745 ± 1560 μm^2, a Major axis [1] of 110 ± 20 μm and a Major/Minor [1] of 1.71 ± 0.37. The Minor axis [1] was 66 ± 12 μm and the fold induction at 50 µM (skeletal α-actin) was 4 to 5.

Reference: patent US6924415B2 (Board of Regents, The University of Texas System, priority 2001, dated 2005)
